Measured values as given in US11426473B2, “Nitrogen-containing compound or salt thereof, or metal complex thereof” (FUJIFILM Corporation, priority 2013, dated 2022).
One block for each molecule: values may come before it.

Assays:
[1] = test system: U87MG cells subcutaneous tumor; assay: Concentration of radioactivity in tumor of labeled compounds (Test Example 4); format: in vivo, mouse; details: tail vein, 111In 740 kBq, 64Cu and 90Y 500 kBq
Protocol: U87MG cells were subcutaneously transplanted at 1×10^7 cells/mouse to the right flank of Balb/cAJcl-nu/nu (CLEA Japan, Inc. or Japan SLC, Inc., 6 to 9 weeks old). After 2 to 3 weeks, the mice were divided into groups each involving 3 individuals per point in time when their tumors became 200 to 500 mm^3. The ^111In-labeled compound (740 kBq) was administered to the tail veins of the mice.
After a given time, the animals were sacrificed to extract their tumors. The weights of the tumors were measured, and the radioactivity was measured using a gamma counter to calculate the concentration of radioactivity in the tumors (% ID/g). In the same way as above, the concentration of radioactivity in the tumors (% ID/g) was calculated for the ^64Cu-labeled compound (500 kBq) and the ^90Y-labeled compound (500 kBq).

[2] = test system: T98G cell (human glioblastoma) subcutaneous tumor; assay: Treatment experiment of subcutaneously T98G-transplanted model using [90Y]-(P2); format: in vivo, mouse; details: 1 dose; for Rate of inhibition: 13 days after administration, above 100% indicated as 100%; for Tumor volume 13 days after administration / Tumor volume At start of administration: n 6, Mean ± SD; for Tumor volume At start of administration: baseline; for The number of individuals having tumor regression: of n 6
Protocol: (§1) U87MG cells were subcutaneously transplanted at 1×10^7 cells/mouse to the right flank of Balb/c Slc-nu/nu (SLC Japan, Inc., male, 6 weeks old). After 2 weeks, mice whose tumors became 100 to 500 mm^3 were grouped. Phosphate-buffered saline (PBS) or the radiolabeled compound [90Y]-(P2) was administered to the tail veins of the mice, and their tumor volumes were measured. When the tumor volumes of the mice in the PBS group exceeded 2,000 mm^3, which is a humanistic endpoint, the antitumor effect was evaluated. The evaluation values were the rate of inhibition of tumor growth ((1−(Average tumor volume of the compound administration group−Average tumor volume of the compound administration group before administration)/(Average tumor volume of the PBS group−Average tumor volume of the PBS group before administration))×100 (provided that the rate of inhibition exceeding 100% was indicated as 100%)) and the number of individuals having a tumor volume equal to or smaller than that at the start of the experiment (the number of individuals having tumor regression).
A mixture of a T98G cell suspension (human glioblastoma, 1×10^7 cells) and Matrigel (Becton, Dickinson and Company) in equal amounts was subcutaneously transplanted to the right flank of Balb/c Slc-nu/nu (SLC Japan, Inc., male, 6 weeks old). After 77 days, the mice were grouped when their tumors became 300 to 1,200 mm^3. Phosphate-buffered saline (PBS) or the radiolabeled compound [^90Y]-(P2) was administered to the tail veins of the mice, and their tumor volumes were measured. The evaluation values were calculated in the same way as in Test Example 8 to evaluate the antitumor effect.

[3] = Absorbed doses in each organ in humans calculated with OLINDA/EXM 1.0 from monkey organ distribution; format: in vivo; details: calculated with OLINDA/EXM 1.0 from monkey imaging with [111In]-(P2)
Protocol: Blood kinetic parameters were calculated with OLINDA/EXM 1.0 from the blood concentration of radioactivity by blood collection over time from a cynomolgus monkey using [^111In]-(P2). Also, absorbed doses in each organ in the case of administration to humans were calculated with OLINDA/EXM 1.0 from organ distribution by imaging using [^111In]-(P2). The radiolabeled compound [^111In]-(P2) (98 MBq/[…]) was administered to a cynomolgus monkey (Hamri Co., Ltd., male, 3 years old, 3.4 kg) under anesthesia. After the administration, blood collection and imaging with a gamma camera were performed over time. The blood collection was carried out 10 minutes, 30 minutes, 60 minutes, 2 hours, 4 hours, 5 hours, 6 hours, 24 hours, 48 hours, 72 hours, and 144 hours after administration. The imaging was carried out 1, 2, 4, 6, 24, 48, 72, and 144 hours after administration with a gamma camera (Symbia, Siemens AG) to take planar images. The anesthesia was carried out using 20 mg/kg ketamine before administration of [^111In]-(P2) and maintained by inhalation anesthesia (2 to 3% isoflurane, 5 to 8 L/min) until the completion of the imaging at 6 hours after administration. At or after 24 hours after administration, blood collection and imaging were performed by the introduction of 20 mg/kg ketamine and 2 mg/kg xylazine. […] The blood kinetic parameters are shown below.

[4] = test system: U87MG cells subcutaneous tumor; assay: Treatment experiment of subcutaneously U87MG-transplanted model using [90Y]-(P2); format: in vivo, mouse; details: 1 dose; for Rate of inhibition: 16 days after administration, above 100% indicated as 100%; for Tumor volume 16 days after administration / Tumor volume At start of administration: n 8, Mean ± SD; for Tumor volume At start of administration: baseline; for The number of individuals having tumor regression: of n 8
Protocol: as §1

[5] = Radiochemical purity after standing at room temperature; format: physicochemical; details: immediately after preparation and after standing at room temperature for 24 hours
Protocol: To a mixed solution of compound (P2) (8.5 μg) and a 0.2 mol/L sodium acetate buffer solution (pH 4.0) (1.5 mL), a [^111In] indium chloride solution (80 MBq, 100 μL) was added. The mixture was heated at 100° C. for 15 minutes and then left at room temperature for 5 minutes to obtain radiolabeled compound [^111In]-(P2). […] Its radiochemical purity was 95% or more both immediately after preparation and after standing at room temperature for 24 hours.
To a mixed solution of compound (P2) (79 μg), gentisic acid (1.8 mg), a 0.6 mol/L sodium acetate buffer solution (pH 4.0, 120 μL), and a 0.4 mol/L aqueous sodium hydroxide solution (24 μL), a [^90Y] yttrium chloride solution (700 MBq, 240 μL) was added. The mixture was heated at 100° C. for 20 minutes and then left at room temperature for 5 minutes to obtain radiolabeled compound [^90Y]-(P2). […] Its radiochemical purity was 95% or more both immediately after preparation and after standing at room temperature for 24 hours.
To a mixed solution of compound (P2) ([…]) and a 0.2 mol/L sodium acetate buffer solution (pH 4.0, 219 μL), a [^64Cu] copper chloride solution (pH 5, 35 MBq, 55 μL) was added. The mixture was heated at 100° C. for 15 minutes and then left at room temperature for 5 minutes to obtain radiolabeled compound [^64Cu]-(P2). […] Its radiochemical purity was 90% or more both immediately after preparation and after standing at room temperature for 22 hours.
To a mixed solution of compound (Aa7) (4.2 μg), gentisic acid (1 mg), and a 0.2 mol/L sodium acetate buffer solution (pH 4.0) (5.0 μL), [^64Cu] copper chloride in a 0.2 mol/L sodium acetate buffer solution (pH 4.0) (40 MBq, 155 μL) was added. The mixture was heated at 100° C. for 15 minutes and then left at room temperature for 5 minutes to obtain radiolabeled compound [^64Cu]-(Aa7). […] Its radiochemical purity was 90% or more both immediately after preparation and after standing at room temperature for 24 hours.

[6] = test system: T98G (human glioblastoma) subcutaneous tumor; assay: Tumor accumulation of [111In]-(A8), tissue extraction and radioactivity measurement, T98G; format: in vivo, mouse; details: 740 kBq tail vein
Protocol: (§2) SK-MEL-28 (human melanoma), A375 (human melanoma), A498 (human renal cell cancer), Caki-2 (human renal cell cancer), HCT116, U87MG, and T98G cells were studied as follows: the cells of each line were cultured and subcutaneously transplanted at 1×10^7 cells/mouse to the right flank of Balb/cAJcl-nu/nu (CLEA Japan, Inc., male, 6 to 8 weeks old). The mice were raised until their tumor volumes reached 85 to 1,075 mm^3. Then, the mice were allocated at the time of anatomy to groups each involving 3 individuals so as to prevent the tumor volumes from disproportioning among the groups. Then, the radiolabeled compound [^111In]-(A8) (740 kBq) was administered to the tail veins of the mice. The animals were sacrificed at the time of anatomy to extract their tumors. The weights of the tumors were measured, and then, the radioactivity was measured using a gamma counter to calculate the concentration of radioactivity in the tumors (% ID/g: % injected dose/g).

[7] = test system: Caki-2 (human renal cell cancer) subcutaneous tumor; assay: Tumor accumulation of [111In]-(A8), tissue extraction and radioactivity measurement, Caki-2; format: in vivo, mouse; details: 740 kBq tail vein
Protocol: as §2

[8] = test system: A498 (human renal cell cancer) subcutaneous tumor; assay: Tumor accumulation of [111In]-(A8), tissue extraction and radioactivity measurement, A498; format: in vivo, mouse; details: 740 kBq tail vein
Protocol: as §2

[9] = test system: HCT116 (human colorectal cancer) subcutaneous tumor; assay: Tumor accumulation of [111In]-(A8), tissue extraction and radioactivity measurement, HCT116; format: in vivo, mouse; details: 740 kBq tail vein
Protocol: as §2

[10] = test system: U87MG (human glioblastoma) subcutaneous tumor; assay: Tumor accumulation of [111In]-(A8), tissue extraction and radioactivity measurement, U87MG; format: in vivo, mouse; details: 740 kBq tail vein
Protocol: as §2

[11] = test system: A375 (human melanoma) subcutaneous tumor; assay: Tumor accumulation of [111In]-(A8), tissue extraction and radioactivity measurement, A375; format: in vivo, mouse; details: 740 kBq tail vein
Protocol: as §2

[12] = test system: SK-MEL-28 (human melanoma) subcutaneous tumor; assay: Tumor accumulation of [111In]-(A8), tissue extraction and radioactivity measurement, SK-MEL-28; format: in vivo, mouse; details: 740 kBq tail vein
Protocol: as §2

Concentration of radioactivity in tumor ([1]; 4 hours later): 12.52 % ID/g | Concentration of radioactivity in tumor ([1]; 24 hours later): 15.29 % ID/g | Absorbed dose, Brain [3]: 1.96 mGy/MBq | Absorbed dose, Kidney [3]: 14.70 mGy/MBq | Absorbed dose, Liver [3]: 1.12 mGy/MBq | Absorbed dose, Lung [3]: 1.35 mGy/MBq | Absorbed dose, Red bone marrow [3]: 0.06 mGy/MBq | Absorbed dose, Small intestine [3]: 0.87 mGy/MBq | Absorbed dose, Whole body [3]: 0.27 mGy/MBq | radiochemical purity after standing [5]: ≥ 95%
SMILES: Cc1cc(OCCCC(=O)NCCNC(=O)[C@H](CS(=O)(=O)O)NC(=O)CN2CCN(CC(=O)[O-])CCN(CC(=O)[O-])CCN(CC(=O)[O-])CC2)cc(C)c1S(=O)(=O)N[C@@H](CNC(=O)CCCCc1ccc2c(n1)NCCC2)C(=O)O.[90Y+3] [[^90Y]-(P2)]
Rate of inhibition ([2]; Dose 22.2 MBa): 82% | Tumor volume 13 days after administration ([2]; Dose 22.2 MBa): 882 ± 399 mm^3 | Tumor volume At start of administration ([2]; Dose 22.2 MBa): 755 ± 293 mm^3 | The number of individuals having tumor regression ([2]; Dose 22.2 MBa): 1 | Rate of inhibition ([2]; Dose 29.6 MBa): 97% | Tumor volume 13 days after administration ([2]; Dose 29.6 MBa): 755 ± 313 mm^3 | Tumor volume At start of administration ([2]; Dose 29.6 MBa): 736 ± 264 mm^3 | The number of individuals having tumor regression ([2]; Dose 29.6 MBa): 3 | Rate of inhibition ([4]; Dose 14.8 MBa): 95% | Tumor volume 16 days after administration ([4]; Dose 14.8 MBa): 429 ± 188 mm^3 | Tumor volume At start of administration ([4]; Dose 14.8 MBa): 351 ± 72 mm^3 | The number of individuals having tumor regression ([4]; Dose 14.8 MBa): 2 | Rate of inhibition ([4]; Dose 22.2 MBa): 97% | Tumor volume 16 days after administration ([4]; Dose 22.2 MBa): 386 ± 142 mm^3 | Tumor volume At start of administration ([4]; Dose 22.2 MBa): 343 ± 88 mm^3 | The number of individuals having tumor regression ([4]; Dose 22.2 MBa): 2

Concentration of radioactivity in tumor ([6]; 4 hours later): 6.5 % ID/g | Concentration of radioactivity in tumor ([6]; 24 hours later): 6.7 % ID/g | Concentration of radioactivity in tumor ([7]; caki-2, 4 hours later): 6.4 % ID/g | Concentration of radioactivity in tumor ([7]; caki-2, 24 hours later): 8.5 % ID/g | Concentration of radioactivity in tumor ([1]; 4 hours later): 9.48 % ID/g | Concentration of radioactivity in tumor ([1]; 24 hours later): 12.90 % ID/g | Concentration of radioactivity in tumor ([8]; A498, 4 hours later): 13.1 % ID/g | Concentration of radioactivity in tumor ([8]; A498, 24 hours later): 7.9 % ID/g | Concentration of radioactivity in tumor ([9]; HCT116, 4 hours later): 3.1 % ID/g | Concentration of radioactivity in tumor ([9]; HCT116, 24 hours later): 2.9 % ID/g | Concentration of radioactivity in tumor ([10]; 4 hours later): 12.0 % ID/g | Concentration of radioactivity in tumor ([10]; 24 hours later): 9.3 % ID/g | Concentration of radioactivity in tumor ([11]; A375, 4 hours later): 3.7 % ID/g | Concentration of radioactivity in tumor ([11]; A375, 24 hours later): 3.8 % ID/g | Concentration of radioactivity in tumor ([12]; sk-mel-28, 4 hours later): 2.9 % ID/g | Concentration of radioactivity in tumor ([12]; sk-mel-28, 24 hours later): 4.9 % ID/g
SMILES: Cc1cc(OCCCC(=O)NCCNC(=O)C(CS(=O)(=O)O)NC(=O)C(CS(=O)(=O)O)NC(=O)CN2CCN(CC(=O)[O-])CCN(CC(=O)[O-])CCN(CC(=O)[O-])CC2)cc(C)c1S(=O)(=O)NC(CNC(=O)c1ccc(CCc2ccc3c(n2)NCCC3)cc1)C(=O)O.[111In+3] (stereo not drawn) [[^111In]-(A8)]
